Results as given in publication PMC5071857, “A unique peptide deformylase platform to rationally design and challenge novel active compounds” (Scientific Reports, 2016).
Where two headings read alike, the source gives them in different places.

How the values were obtained:
SaPDF [1] = target: T1, SaPDF (Streptococcus agalactiae serotype III, UniProt Q8E378, S2A); assay: biochemical; conditions: for Ki: SaPDF KI, no pre-incubation, assay initiated by addition of enzyme, 40 nM SaPDF, 37 °C; for SaPDF KI/KI*app: enhancement potency (slow tight-binding)
T1 construct: the recombinant protein contains all residues of the 204 amino acids mature protein; made in house; host or cells: E. coli Rosetta 2(DE3)pLysS
T1 sequence (Q8E378 whole entry S2A): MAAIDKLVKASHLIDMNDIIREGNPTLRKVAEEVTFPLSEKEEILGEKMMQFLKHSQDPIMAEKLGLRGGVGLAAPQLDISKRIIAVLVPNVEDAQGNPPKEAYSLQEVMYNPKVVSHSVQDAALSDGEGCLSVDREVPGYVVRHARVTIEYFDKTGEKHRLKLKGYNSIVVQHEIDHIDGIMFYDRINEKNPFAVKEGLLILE
Protocol: (§1) Enzymatic activity was measured by a spectrophotometric assay where peptide deformylase activity is coupled to that of formate dehydrogenase. The formate released by the deformylation reaction is used by FDH to convert NAD in NADH, the production of which being measured over time at 340 nm and controlled temperature (37 °C). The 200 μL reaction mixture contained 50 mM HEPES-NaOH pH7.5, 12 mM NAD^+, 4.5 U/mL FDH, 1 mM NiCl2 and PDF enzyme (either 40 nM SaPDF or 10 nM EcPDF or 100 nM AtPDF1B) previously diluted in presence of 0.1 mg/mL BSA. The reaction was started by addition of 1–6 mM Fo-Met-Ala-Ser. Kinetics parameters (kcat, Km) were derived from iterative non-linear least square fits using the Michaelis-menten equation based on the experimental data (Sigma-Plot, Kinetics module).
(§2) 1/KI*app is the slope of the v0/vi curve in function of compound concentration, where v0 and vi are the initial reaction rates in absence and presence of compound, respectively.
(§3) Determination of KI values was performed with a slightly modified protocol: reaction was started by addition of enzyme instead of Fo-Met-Ala-Ser, the latter being directly added to the mixture containing increasing concentrations of each compound. No pre-incubation of enzyme in presence of compound was done. 1/KI is the slope of the v0/vi curve in function of compound concentration, where v0 and vi are the initial reaction rates in absence and presence of compound respectively.

EcPDF = target: T2, EcPDF (Escherichia coli, UniProt P0A6K3); assay: PDF inhibition, formate dehydrogenase-coupled spectrophotometric assay (EcPDF); type: biochemical; conditions: for Ki: 10 nM EcPDF; for EcPDF KI/KI*app: enhancement potency (slow tight-binding)
T2 construct: made in house
T2 sequence (P0A6K3 whole entry): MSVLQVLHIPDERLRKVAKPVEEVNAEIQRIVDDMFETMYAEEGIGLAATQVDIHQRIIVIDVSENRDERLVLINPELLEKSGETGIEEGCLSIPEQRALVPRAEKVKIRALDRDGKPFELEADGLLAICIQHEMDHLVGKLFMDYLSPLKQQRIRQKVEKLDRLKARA
Protocol: as §1, with “The” for “Enzymatic activity was measured by a spectrophotometric assay where peptide deformylase activity is coupled to that of formate dehydrogenase. The”
as §2, §3

AtPDF1B [2] = target: T3, AtPDF1B (Arabidopsis thaliana, UniProt Q9FUZ2); assay: PDF inhibition, formate dehydrogenase-coupled spectrophotometric assay (AtPDF1B); type: biochemical; conditions: for IC50 / Ki: 100 nM AtPDF1B; for IC50: 2 mM Fo-Met-Ala-Ser, 10 min pre-incubation at 37 °C; for Ki: PDFI pre-incubated with enzyme 10 min at 37 °C, started by 2 mM Fo-Met-Ala-Ser, read-out: AtPDF1B KI*app; for AtPDF1B KI/KI*app: enhancement potency (slow tight-binding)
T3 construct: made in house
T3 sequence (Q9FUZ2 83-273): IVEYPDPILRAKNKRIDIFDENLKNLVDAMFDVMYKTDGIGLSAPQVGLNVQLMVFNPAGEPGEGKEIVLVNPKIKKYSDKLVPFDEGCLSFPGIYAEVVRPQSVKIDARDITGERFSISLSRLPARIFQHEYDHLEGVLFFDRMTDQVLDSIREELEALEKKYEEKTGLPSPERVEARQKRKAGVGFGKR
Protocol: as §1, §2, §3

E. coli AG100 = assay: MIC by microdilution, E. coli AG100; type: cell-based; conditions: 18 h at 37 °C, average of three assays; for MIC: Escherichia coli, AG100, without PMBN; for MIC AG100: with PMBN at 1/5 of its MIC
Source text: (§4) Two E. coli strains, one B. subtilis strain, one S. aureus strain, one E. faecalis strain, one S. agalactiae strain and three Enterobacter aerogenes strains previously described were used. Briefly, AG100 was an E. coli wild type strain and AG100A its acrAB^- derivative. EA289 was a Kan^s derivative of an E. aerogenes multi-drug resistant (MDR) clinical isolate overexpressing AcrAB-TolC efflux pumps, and EA294 and EA298 its acrAB^- and tolC^- derivatives respectively. Strains were routinely grown at 37 °C on Luria-Bertani (LB) agar or in Mueller-Hinton II broth (MH), supplemented with kanamycine (50 μg.mL^−1) for AG100A, EA294 and EA298.
(§5) MIC values of antibiotics were determined by the microdilution method in liquid MH media in microplates in the absence or presence of chemosensitizers/modulators (e.g. PMBN, PAβN), as previously described. Permeabilization, blocking of efflux pumps, and isolates with different levels of porin or efflux expression were used to assess the involvement of the membrane barrier in antibiotic activity.
(§6) Susceptibilities were determined in 96-wells microplates with an inoculum of 2 × 10^5 cfu in 200 μL of MH broth containing two-fold serial dilutions of each antibiotics or compounds. Molecules were tested alone or in combination with other molecules in equimolar ratio. MICs were realized in the absence and in the presence of a membrane permeabilizer, the polymyxine B nonapeptide (PMBN) used at 51.2 mg/L (1/5 or 1/10 of its direct MIC previously determined). Actinonin and ciprofloxacin were used as internal antibiotic reference. […] Each test was systematically performed in triplicate. The average of three independent assays is presented in μg/mL in the respective tables.

[3] = test system: E. coli AG100A (AcrAB- derivative); assay: MIC by microdilution, E. coli AG100A; type: cell-based; conditions: for MIC: Escherichia coli, 18 h, read-out: MIC AG100A; for MIC AG100A: with PMBN at 1/5 of its MIC, 18 h at 37 °C, average of three assays
Source text: as §4, §5, §6

[4] = test system: E. aerogenes Ea289, MDR strain; assay: MIC by microdilution, E. aerogenes Ea289; type: cell-based, Enterobacter aerogenes; conditions: for MIC Ea289: +PMBN at 1/5 of its MIC, average of three assays; for MIC: Klebsiella aerogenes, 18 h, read-out: MIC Ea289
Source text: as §4, §5, §6

[5] = test system: E. aerogenes Ea294, Ea289 derivative AcrAB-; assay: MIC by microdilution, E. aerogenes Ea294; type: cell-based, Enterobacter aerogenes; conditions: for MIC Ea294: +PMBN at 1/5 of its MIC, average of three assays; for MIC: Klebsiella aerogenes, 18 h, read-out: MIC Ea294
Source text: as §4, §5, §6

[6] = test system: E. aerogenes Ea298, Ea289 derivative tolC-; assay: MIC by microdilution, E. aerogenes Ea298; type: cell-based, Enterobacter aerogenes; conditions: for MIC: Klebsiella aerogenes, 18 h, read-out: MIC Ea298
Source text: as §4, §5, §6

SaPDF [7] = target: T1, SaPDF; assay: biochemical; conditions: SaPDF KI*app, PDFI pre-incubated with enzyme 10 min at 37 °C, started by 2 mM Fo-Met-Ala-Ser; 40 nM SaPDF
AtPDF1B [8] = target: T3, AtPDF1B; assay: PDF inhibition, formate dehydrogenase-coupled spectrophotometric assay (AtPDF1B); type: biochemical; conditions: no pre-incubation, assay initiated by addition of enzyme; 100 nM AtPDF1B; 37 °C
S. aureus SA113 = assay: MIC, S. aureus SA113; type: cell-based; conditions: Staphylococcus aureus
Source text: as §4, §5, §6

E. faecalis EFA 103.214 = assay: MIC, E. faecalis EFA 103.214; type: cell-based; conditions: Enterococcus faecalis, EFA103.214, read-out: MIC E. faecalis EFA 103.214
Source text: as §4, §5, §6

[9] = EcPDF KI*app, PDFI pre-incubated with enzyme 10 min at 37 °C, started by 2 mM Fo-Met-Ala-Ser
[10] = EcPDF KI, no pre-incubation, assay initiated by addition of enzyme, 37 °C

Compound	IC50 (SaPDF [1]) [nM]	Ki (SaPDF [1]) [nM]	IC50 (EcPDF) [nM]	Ki (EcPDF; [9]) [nM]	Ki (EcPDF; [10]) [nM]	EcPDF KI/KI*app (EcPDF)	IC50 (AtPDF1B [2]) [nM]	Ki (AtPDF1B [2]) [nM]	AtPDF1B KI/KI*app (AtPDF1B [2])	MIC (E. coli AG100) [µg/mL]	MIC AG100 (E. coli AG100) [µg/mL]	MIC [3] [µg/mL]	MIC AG100A [3] [µg/mL]	MIC Ea289 [4] [µg/mL]	MIC [4] [µg/mL]	Ki (SaPDF [7]) [nM]	Ki (AtPDF1B [8]) [nM]	MIC (S. aureus SA113) [µg/mL]	MIC (E. faecalis EFA 103.214) [µg/mL]	SaPDF KI/KI*app (SaPDF [1])	also measured
O=C(C[C@@H](CC1CCCC1)c1nc(Cc2coc3ccccc23)no1)NO [AT019]	7 ± 1	65 ± 6	6 ± 1	1.1 ± 0.3	76 ± 4	69	77 ± 5	54 ± 2	5	> 64	2	16	0.5	16	> 128	7.5 ± 2	263 ± 26	–	–	–	MIC Ea294 [5]: 2 µg/mL; MIC [5]: 128 µg/mL; MIC [6]: 64 µg/mL
CCCCC[C@H](CC(=O)NO)C(=O)N[C@H](C(=O)N1CCC[C@H]1CO)C(C)C [Actinonin, actinonin, reference compound]	3 ± 0.9	64 ± 5	–	–	–	–	7.5 ± 1.8	3.5 ± 0.3	–	128	4	1	0.25	32	> 64	1 ± 0.1	82 ± 10	–	–	–	MIC Ea294 [5]: 4 µg/mL; MIC [5]: 64 µg/mL; MIC Ea298 ([6]; +PMBN at 1/5 of its MIC, average of three assays): 1 µg/mL; MIC [6]: 32 µg/mL
CCCCC(CC(=O)NO)c1nc(Cc2ccc(F)cc2)no1 (centres unmarked) [AT002]	3.5 ± 0.8	13 ± 1	4 ± 1	5 ± 2	31 ± 7	6	–	53 ± 3	1	> 64	64	> 64	32	–	–	4 ± 0.5	58 ± 4	> 64	> 64	–	–
O=C(Cc1cn(Cc2ccccc2)c2ccc(Br)cc12)NO [SMP195]	110 ± 10	285 ± 18	17 ± 4	20 ± 3	29 ± 4	1	400 ± 33	833 ± 53	1	–	–	–	–	–	–	250 ± 17	909 ± 118	4	16	1	–
O=C(Cn1cc(Cc2ccccc2)c2cc(Br)ccc21)NO [SMP289]	360 ± 21	909 ± 64	480 ± 30	625 ± 75	769 ± 30	1	703 ± 47	1430	1	> 64	8	> 64	4	–	–	714 ± 72	1000 ± 78	4	16	1	–
CCCCC(CC(=O)NO)c1nc(Cc2ccc(C(F)(F)F)cc2)no1 (centres unmarked) [AT008]	25 ± 2	75 ± 4	14 ± 2	18 ± 3	80 ± 10	4	–	666 ± 29	1	> 64	>64	> 64	16	–	–	81 ± 5	909 ± 78	> 64	> 64	1	–
